Data as given in article PMC5556071, “ATR inhibition facilitates targeting of leukemia dependence on convergent nucleotide biosynthetic pathways” (Nature Communications, 2017).
“And” between values parts separate entries of the source, which are not always exact repeats. Identical values can stand only once.

System: CEM cells
Assay: Non-targeted LC-MS metabolite profiling: percent [13C6]glucose labeling and relative metabolite levels
Type: cell-based, human
Settings: CEM cells, 12 h following release from G1 arrest, replicates #1-#6
Source text: To further investigate the functions of dCK and ATR at the G1/S transition in CEM cells, a non-targeted liquid chromatography mass spectrometry (LC-MS) assay was used to determine the utilization of labeled [^13C6]glucose and [^13C9,^15N3]deoxycytidine, the main substrates for de novo and salvage nucleotide biosynthesis, respectively. Of the 166 metabolites identified in CEM cells treated with VE-822 and/or dCKi, 105 metabolites found in all four treatment groups contained glucose-derived ^13C atoms. […] These metabolites included intermediates such as rUTP, rCTP and rCDP in the de novo dCTP biosynthesis (Fig. 1d). […] However, several deoxyribonucleotides, including dCTP, were below the limit of detection of the non-targeted LC-MS approach, raising the concern that the sensitivity of this assay is not sufficient to measure the contribution of the salvage pathway or the ratio of de novo and salvage biosynthesis to these pools. To address this problem, a newly developed targeted MS assay was developed (Fig. 1e and Supplementary Fig. 3). In this assay, samples containing either extracted dNTPs or hydrolyzed DNA from labeled cells are separated by LC for detection by a triple quadrupole mass spectrometer using multiple reaction monitoring (LC-MS/MS-MRM). The first (Q1) and third (Q3) quadrupoles function as mass filters, while the second (Q2) quadrupole serves as a collision chamber (Fig. 1e). For instance, to profile the biosynthetic composition of deoxycytidine (dC) derived from hydrolyzed DNA or dCTP, an intact, protonated dC ion is selected in Q1, followed by fragmentation of the glycosidic bond, which releases protonated cytosine in Q2, that is filtered in Q3 and detected to generate an ion chromatogram. The peak areas for the ion chromatograms of salvage [^13C9,^15N3]dC (red trace), de novo [^13C5]dC (black trace, from [^13C6]glucose) and unlabeled dC (gray trace) (Fig. 1e) are used to determine the relative contributions of the de novo and salvage routes both to dCTP pools and to DNA-incorporated dCTP.
Cells were transferred into RPMI-1640 without glucose and supplemented with 10% dialyzed FBS (Gibco) containing the following labeled substrates: precursors for de novo [U-^13C6]glucose (Sigma-Aldrich, 389374) at 11 mM; precursors for purine salvage [U-^13C10,^15N5]dA (Cambridge Isotopes, CIL 3896), [^15N5]dA (Cambridge Isotopes, NLM-3895) and [^15N5]dG (Cambridge Isotopes, NLM-3899) at 5 µM or as indicated; and precursors for pyrimidine salvage: [U-^13C9,^15N3]dC (Silantes, 124603602) and [U-^13C10,^15N2]dT (Cambridge Isotopes, CNLM-3902) at 5 µM and [^15N2]orotate (Cambridge Isotopes, NLM-1048) at indicated concentrations. The cells were incubated for 12 h or as indicated before sample collection and processing. […]
Non-targeted LC-MS metabolic assays. 1 x 10^6 cells were washed with ice-cold 150 mM ammonium acetate twice before adding 1 mL of ice-cold 80% methanol with 10 nM norvaline as an internal standard. After vigorous vortexing, samples were centrifuged at maximum speed, the aqueous layer was transferred to a glass vial and the metabolites were dried under vacuum. Metabolites were resuspended in 50 μL 70% acetonitrile (ACN) and 5 μL of this solution used for the mass spectrometer-based analysis. The analysis was performed on a Q Exactive (Thermo Scientific) in polarity-switching mode with positive voltage 4.0 kV and negative voltage 4.0 kV. The mass spectrometer was coupled to an UltiMate 3000RSLC (Thermo Scientific) UHPLC system. Mobile phase A was 5 mM ammonium acetate (NH4AcO), pH 9.9, B was acetonitrile and the separation achieved on a Luna […] NH2 100 A column (150 × 2.0 mm, Phenomenex). The flow was 200 μL/min, and the gradient ran from 15% A to 95% A in 18 min, followed by an isocratic step for 9 min and re-equilibration for 7 min. Metabolites were detected and quantified as area under the curve based on retention time and accurate mass (≤ 3 p.p.m.) using the TraceFinder 3.1 (Thermo Scientific). Relative amounts of […]

[1] = metabolite Asn (C00152), listed as D
[2] = metabolite Asp (C00049), listed as D
[3] = metabolite Carnitine (C00318), listed as D
[4] = metabolite G3P (KEGG C00118), listed as D
[5] = metabolite G6P-F6P (KEGG C00668), listed as D
[6] = metabolite GABA (KEGG C00334), listed as D
[7] = metabolite GDP (KEGG C00035), listed as D
[8] = metabolite GMP (KEGG C00144), listed as D
[9] = metabolite GSH (KEGG C00051), listed as D
[10] = metabolite GSSG (KEGG C00127), listed as D
[11] = metabolite GTP (KEGG C00044), listed as D
[12] = metabolite Glc (KEGG C00031), listed as D
[13] = metabolite GlcA (KEGG C00257), listed as D
[14] = metabolite GlcN-6P (KEGG C00352), listed as D
[15] = metabolite GlcNAc-6P (KEGG C00357), listed as D
[16] = metabolite Gln (KEGG C00064), listed as D
[17] = metabolite Glu (KEGG C00025), listed as D
[18] = metabolite GlucA (KEGG C00191), listed as D
[19] = metabolite Gly (KEGG C00037), listed as D
[20] = metabolite Glycerol (KEGG C00116), listed as D
[21] = metabolite Glycerol-2-P (KEGG C02979), listed as D
[22] = metabolite Glycerol-3-P (KEGG C00093), listed as D
[23] = metabolite His (KEGG C00135), listed as D
[24] = metabolite Homocysteine (KEGG C00155), listed as D
[25] = metabolite Hypoxanthine (KEGG C00262), listed as D
[26] = metabolite IMP (KEGG C00130), listed as D
[27] = metabolite Inosine (KEGG C00294), listed as D
[28] = metabolite a-KG (C00026), listed as D

Structure (SMILES): COc1ccc(-c2nc([C@@H](C)Sc3nc(N)cc(N)n3)c(C)s2)cc1OCCNS(C)(=O)=O [dCKi]
- Relative level, Arg-Succ (metabolite Arg-Succ (C03406), listed as D): 1.1 and 1.2 and 1.4 and 0.428 and 0.458 and 0.6
- Glucose labeling, Asn [1]: 0.000993% and 2.77e-6% and 0.00524% and 0.00322% and 0.000183% and 2.2e-6%
- Relative level, Asn [1]: 1.1 and 1.3 (2×) and 0.8 and 0.7 and 0.85
- Glucose labeling, Asp [2]: 24.08% and 25.99% and 25.39% and 25.08% and 25.80% and 25.92%
- Relative level, Asp [2]: 0.9 (3×) and 1.1 and 0.5 and 0.6
- Glucose labeling, C (metabolite C (D07769), listed as D): 0.44% (4×) and 0.15% and 0.31%
- Relative level, C (metabolite C, listed as D): 1.0 and 1.2 and 1.3 (2×) and 1.4 and 1.1
- Glucose labeling, Carnitine [3]: 0.0041% and 0.00586% and 0.00566% and 0.00463% and 0.00467% and 0.00476%
- Relative level, Carnitine [3]: 1.0 and 1.1 (2×) and 0.9 (2×) and 0.843
- Glucose labeling of G3P [4]: 100.00% (3×) and 0.0369% (3×)
- Relative level of G3P [4]: 0.316 and 1.2 and 0.237 and 0.232
- Glucose labeling of G6P-F6P [5]: 57.18% and 69.30% and 72.35% and 21.95% and 56.24% and 64.94%
- Relative level of G6P-F6P [5]: 0.6 and 0.7 and 1.0 and 0.163 and 0.339 and 0.4
- Glucose labeling of GABA [6]: 0.0266% and 0.0568% and 0.0445% and 0.0322% and 0.0737% (2×)
- Relative level of GABA [6]: 1.2 and 1.4 and 1.5 and 0.6 and 0.5 and 0.466
- Glucose labeling of GDP [7]: 100.00% (2×) and 89.71% and 79.16% and 66.81% and 77.84%
- Relative level of GDP [7]: 0.278 and 0.74 and 2.1 and 0.0943 and 0.533
- Glucose labeling of GMP [8]: 82.17% and 84.38% and 86.57% and 100.00% and 55.56% and 83.28%
- Relative level of GMP [8]: 1.0 (2×) and 2.5 and 0.177 and 0.7
- Glucose labeling of GSH [9]: 24.91% and 25.95% and 26.01% and 22.52% and 20.58% and 22.91%
- Relative level of GSH [9]: 0.8 and 1.1 and 1.4 and 0.2 and 0.245 and 0.4
- Glucose labeling of GSSG [10]: 44.73% and 47.85% and 45.35% and 40.72% and 38.47% and 41.79%
- Relative level of GSSG [10]: 1.0 (2×) and 1.3 and 1.5 and 0.364 and 0.7
- Glucose labeling of GTP [11]: 88.53% and 93.02% and 84.10% and 100.00% and 95.85% and 82.17%
- Relative level of GTP [11]: 0.137 and 0.6 and 1.3 and 0.0117 and 0.173 and 0.5
- Glucose labeling of Glc [12]: 48.02% and 85.76% and 96.57% and 84.10% and 87.56% and 88.93%
- Relative level of Glc [12]: 0.632 and 1.4 and 6.6 and 1.5 and 2.2 and 2.0
- Glucose labeling of GlcA [13]: 38.48% and 42.08% and 42.11% and 29.34% and 32.69% and 34.11%
- Relative level of GlcA [13]: 1.0 (2×) and 1.4 and 0.4 and 0.5 and 0.7
- Glucose labeling of GlcN (metabolite GlcN (KEGG C00329)): 0.18%
- Relative level of GlcN (metabolite GlcN (KEGG C00329), listed as D): 1.4 and 0.948 and 0.9 (2×) and 1.0 and 0.8
- Glucose labeling of GlcN-6P [14]: 6.04% and 8.63% and 7.74% and 8.56% and 9.86% and 9.69%
- Relative level of GlcN-6P [14]: 0.8 and 0.847 and 1.1 and 0.743 and 0.7 and 1.0
- Glucose labeling of GlcNAc-6P [15]: 12.90% and 10.87% and 25.06% and 34.14% and 41.68% and 27.99%
- Relative level of GlcNAc-6P [15]: 0.636 and 0.8 and 1.2 and 0.212 and 0.6 (2×)
- Glucose labeling of Gln [16]: 0.24% and 0.28% (4×) and 0.29%
- Relative level of Gln [16]: 1.0 (2×) and 1.2 and 1.3 and 0.9 (2×)
- Glucose labeling of Glu [17]: 30.50% and 31.50% and 31.06% and 32.25% and 32.69% and 32.43%
- Relative level of Glu [17]: 1.0 and 1.1 and 1.2 and 0.6 (2×) and 0.751
- Glucose labeling of GlucA [18]: 0.47% and 1.38% and 1.95% and 0.76% and 1.61% and 0.18%
- Relative level of GlucA [18]: 1.5 and 0.9 and 1.3 and 0.635 and 0.563 and 0.7
- Glucose labeling of Gly [19]: 5.78% and 6.19% and 5.38% and 3.11% and 3.32% and 3.83%
- Relative level of Gly [19]: 1.1 and 1.3 and 1.2 (2×) and 0.9 and 0.854
- Glucose labeling of Glycerol [20]: 0.0257% and 0.0369% (2×) and 0.03% and 0.00165% and 0.0279%
- Relative level of Glycerol [20]: 0.8 (2×) and 0.7 and 1.5 and 2.6 and 2.4
- Glucose labeling of Glycerol-2-P [21]: 12.49% and 5.31% and 20.27% and 20.32% and 0.0369% and 11.49%
- Relative level of Glycerol-2-P [21]: 0.6 and 0.5 and 1.9 and 0.0423 and 0.16 and 0.346
- Glucose labeling of Glycerol-3-P [22]: 15.24% and 16.29% and 15.98% and 18.03% and 18.16% and 17.98%
- Relative level of Glycerol-3-P [22]: 1.0 and 0.9 (2×) and 0.7 (2×) and 0.656
- Glucose labeling of HS2O3 (metabolite HS2O3 (KEGG C00320)): 100.00%
- Relative level of HS2O3 (metabolite HS2O3 (KEGG C00320), listed as D): 0.9 (2×) and 1.0 and 0.8 and 1.1 (2×)
- Glucose labeling of His [23]: 0.00% (5×) and 1.11e-14%
- Relative level of His [23]: 1.2 and 1.3 and 1.5 and 0.76 and 0.6 and 0.7
- Glucose labeling of Homocysteine [24]: 0.022% and 0.0737% and 0.000309% and 0.01% and 0.000455% and 0.23%
- Relative level of Homocysteine [24]: 2.7 and 0.5 and 1.5 (2×) and 3.4 and 0.855
- Glucose labeling of Hypoxanthine [25]: 0.00941% and 0.12% (4×) and 0.06%
- Relative level of Hypoxanthine [25]: 2.0 and 0.2 and 1.0 and 1.3 (2×) and 2.9
- Glucose labeling of IMP [26]: 93.29% and 98.06% and 95.55% and 100.00% and 94.31% and 97.32%
- Relative level of IMP [26]: 0.7 and 0.8 and 1.6 and 0.111 and 0.323 and 0.6
- Glucose labeling of Inosine [27]: 0.55% (4×) and 100.00% and 49.07%
- Relative level of Inosine [27]: 0.5 and 0.547 and 0.3 and 0.568 and 0.6
- Glucose labeling of Inositol (metabolite Inositol (KEGG C00137)): 0.00%
- Relative level of Inositol (metabolite Inositol (KEGG C00137), listed as D): 1.0 (2×) and 1.6 (2×) and 1.1 (2×)
- Glucose labeling, a-KG [28]: 4.27% and 11.78% and 16.08% and 0.12% (2×) and 4.73%
- Relative level, a-KG [28]: 0.7 and 1.1 and 2.3 and 0.0795 and 0.14 and 0.259
